Experimental data: paper PMC4167698, “Fatty Acid Esters of Phloridzin Induce Apoptosis of Human Liver Cancer Cells through Altered Gene Expression” (PLoS ONE, 2014)

How the values were obtained:
[1] = test system: THP-1 cells; assay: MTS cell proliferation assay, THP-1; format: cell-based, human; settings: Homo sapiens, MTS
Method: (§1) Cell viability was determined by using the MTS assay. In brief, HepG2 cells (5×10^3 cells/100 µL/well), MDA-MB-231 (5×10^3 cells/100 µL/well), THP-1 (25×10^3/100 µL/well), normal human and rat hepatocytes (1×10^4 cells/100 µL/well) were plated in triplicate, in a 96 well sterile flat bottom tissue culture plates. […] Thereby, cells were exposed to various concentrations (0.1, 1, 10, 25, 50, 75, 100 µM) of each treatment. Controls consist of cells with media containing DMSO (<0.5%), test blank wells contained the test compound in media with no cells and blank wells contained media with no cells. After additional 3, 6, 12, 18 or 24 h, 20 µL of the MTS reagent in combination with the electron coupling agent, phenazine methosulfate were added to the wells and cells were incubated in a humidified incubator for 3 h. Absorbance at 490 nm (OD490) was measured by using a Flurostar Optima microplate reader (BMG Labtech, Cary, NC, USA) to obtain the number of viable cells relative to the control population. Percentage of viability of the test compound treated cells are expressed as percentage compared to control (<0.5% DMSO). […] The selective index (SI) of the fatty acid esters of phloridzin is defined as the ratio of cytotoxicity (EC50 values) on normal HP-F cells to solid cancer HepG2, MDA-MB-231 cells (SI = EC50 on HP-F cells/EC50 on solid cancer cells). Samples with SI values greater than three were considered to have high selectivity towards cancer cells.

[2] = test system: HepG2 cells; assay: MTS cell proliferation assay, HepG2; format: cell-based, human; settings: Homo sapiens, MTS
Method: as §1

[3] = test system: MDA-MB-231 cells; assay: MTS cell proliferation assay, MDA-MB-231; format: cell-based, human; settings: Homo sapiens, MTS
Method: as §1

[4] = test system: normal human hepatocytes (HP-F); assay: MTS cell viability assay, normal human hepatocytes; format: cell-based; settings: Hepatocyte, 24 h
Method: as §1

EC50 ([1]; THP-1, 3 h)	EC50 ([1]; THP-1, 6 h)	EC50 ([1]; THP-1, 12 h)	EC50 ([1]; THP-1, 18 h)	EC50 ([1]; THP-1, 24 h)	EC50 ([2]; HepG2, 3 h)	EC50 ([2]; HepG2, 6 h)	EC50 ([2]; HepG2, 12 h)	EC50 ([2]; HepG2, 18 h)	EC50 ([2]; HepG2, 24 h)	EC50 ([3]; MDA-MB-231, 3 h)	EC50 ([3]; MDA-MB-231, 6 h)	EC50 ([3]; MDA-MB-231, 12 h)	EC50 ([3]; MDA-MB-231, 18 h)	EC50 ([3]; MDA-MB-231, 24 h)	SMILES	EC50 [4]
> 100 µM	> 100 µM	> 100 µM	> 100 µM	> 100 µM	> 100 µM	> 100 µM	> 100 µM	> 100 µM	> 100 µM	> 100 µM	> 100 µM	> 100 µM	> 100 µM	> 100 µM	CCCCC/C=C\C/C=C\CCCCCCCC(=O)O [Linoleic acid, linoleic acid]	> 100 µM
> 100 µM	> 100 µM	> 100 µM	> 100 µM	> 100 µM	> 100 µM	> 100 µM	> 100 µM	> 100 µM	> 100 µM	> 100 µM	> 100 µM	> 100 µM	> 100 µM	> 100 µM	CC/C=C\C/C=C\C/C=C\C/C=C\C/C=C\CCCC(=O)O [EPA, eicosapentaenoic acid]	> 100 µM
> 100 µM	> 100 µM	> 100 µM	> 100 µM	> 100 µM	> 100 µM	> 100 µM	> 100 µM	> 100 µM	> 100 µM	> 100 µM	> 100 µM	> 100 µM	> 100 µM	> 100 µM	CCCCCCCCCCCCCCCCCC(=O)O [Stearic acid, stearic acid]	> 100 µM

SMILES	EC50 ([1]; THP-1, 3 h)	EC50 ([1]; THP-1, 6 h)	EC50 ([1]; THP-1, 12 h)	EC50 ([1]; THP-1, 18 h)	EC50 ([1]; THP-1, 24 h)	EC50 ([2]; HepG2, 3 h)	EC50 ([2]; HepG2, 6 h)	EC50 ([2]; HepG2, 12 h)	EC50 ([2]; HepG2, 18 h)	EC50 ([2]; HepG2, 24 h)	EC50 ([3]; MDA-MB-231, 3 h)	EC50 ([3]; MDA-MB-231, 6 h)	EC50 ([3]; MDA-MB-231, 12 h)	EC50 ([3]; MDA-MB-231, 18 h)	EC50 ([3]; MDA-MB-231, 24 h)	EC50 [4]
CCCCCCCC/C=C\CCCCCCCC(=O)O [Oleic acid, oleic acid]	> 100 µM	> 100 µM	> 100 µM	> 100 µM	> 100 µM	> 100 µM	> 100 µM	> 100 µM	> 100 µM	> 100 µM	> 100 µM	> 100 µM	> 100 µM	> 100 µM	> 100 µM	> 100 µM
